According to patent EP4603105A1, “PHARMACEUTICAL COMPOSITION CONTAINING CYCLIC COMPOUND HAVING SELECTIVE KRAS INHIBITORY EFFECT AGAINST HRAS AND NRAS” (CHUGAI SEIYAKU KABUSHIKI KAISHA, priority 2022, dated 2024):
pIC50, pKd: −log10 of the molar value.

Experiments:
[1] = target: GDP-bound KRAS wild-type protein (Homo sapiens, UniProt P01116); assay: Binding to KRAS by surface plasmon resonance (SPR), dissociation constant KD; details: Single Cycle Kinetics
Outline: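 SPR, 30°C: Avi-biotin RAS·GDP captured via Biotin CAPture (~100–300 RU); running buffer HBS pH 7.4, 1 mM DTT, 10 mM MgCl2, 0.01% Tween 20, 10 µM GDP, 4% DMSO. Single-cycle kinetics, 100 µL/min, 75 s injections; 1:1 model → KD.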

[2] = target: GDP-bound NRAS wild-type protein (Homo sapiens, UniProt P01111); assay: Binding to NRAS by surface plasmon resonance (SPR), KD and KD ratio to KRAS; details: ratio of KD for GDP-bound NRAS wild-type protein to KD for KRAS
Outline: (§1)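 Running buffer contained 10 µM GDP and 10 mM MgCl2 to keep RAS in the GDP state, with 4% DMSO at pH 7.4. Compounds were flowed at 100 µL/min in 75 s steps of rising concentration over captured biotin-Avi RAS at 30°C. Sensorgrams were fitted 1:1 for KD.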

HRAS wild-type protein = HRAS wild-type protein (Homo sapiens, UniProt P01112); assay: Binding to HRAS by surface plasmon resonance (SPR), KD and KD ratio to KRAS; details: ratio of KD for HRAS wild-type protein to KD for KRAS
Outline: as §1

[3] = tested on: human lung cancer strain NCI-H441; assay: NCI-H441 cell proliferation inhibitory activity (CellTiter-Glo, 4 days); format: cell-based; details: NCI-H441 cells, 4 days, read-out: NCl-H441 IC50
Outline: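 Step one: dispense the test compound in serial DMSO dilutions. Step three: add the reagent and measure […].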

Sequence of GDP-bound KRAS wild-type protein (P01116 1-188 isoform P01116-2): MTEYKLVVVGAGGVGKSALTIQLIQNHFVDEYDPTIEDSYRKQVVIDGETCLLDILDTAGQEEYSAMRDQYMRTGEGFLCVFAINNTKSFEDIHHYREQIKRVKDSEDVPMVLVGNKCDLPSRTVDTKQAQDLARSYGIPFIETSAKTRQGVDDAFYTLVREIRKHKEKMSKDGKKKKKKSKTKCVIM
Sequence of HRAS wild-type protein (P01112 whole entry): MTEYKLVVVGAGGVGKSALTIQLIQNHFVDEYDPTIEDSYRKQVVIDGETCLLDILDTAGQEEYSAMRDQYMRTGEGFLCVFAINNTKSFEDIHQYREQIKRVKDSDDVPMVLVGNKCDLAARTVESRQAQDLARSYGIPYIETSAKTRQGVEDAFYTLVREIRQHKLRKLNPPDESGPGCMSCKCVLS
Sequence of GDP-bound NRAS wild-type protein (P01111 whole entry): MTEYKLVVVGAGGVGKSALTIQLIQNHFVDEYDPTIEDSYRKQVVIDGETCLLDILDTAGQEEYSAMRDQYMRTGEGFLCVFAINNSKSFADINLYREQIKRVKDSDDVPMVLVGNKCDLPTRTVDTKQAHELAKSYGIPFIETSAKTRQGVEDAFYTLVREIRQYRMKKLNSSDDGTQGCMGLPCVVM

Row | SMILES | pKd [1] | NRAS /KRAS [2] | HRAS /KRAS (HRAS wild-type protein) | pIC50 [3]
1 | CCO[C@@H]1C[C@H]2C(=O)OC3(CCC3)C(=O)N(C)[C@@H](C3CCCC3)C(=O)N(C)[C@H](C(=O)N(C)C)CC(=O)N(C)[C@@H](CC(C)C)C(=O)N[C@@H]([C@@H](C)CC)C(=O)N(C3CC3)CC(=O)N(C)[C@H]3C/C=C\CCN(C3=O)[C@@H](Cc3ccc(C)cc3)C(=O)N(C)CC(=O)N[C@@H](CCc3ccc(C(F)(F)F)c(OC)c3)C(=O)N2C1 [PP3381] | 8.96 | A (a compound having 10 or more and less than 20 is denoted as A) | A (a compound having 10 or more and less than 20 is denoted as A) | 7.73
2 | CCO[C@@H]1C[C@H]2C(=O)OC3(CCC3)C(=O)N(C)[C@@H](C3CCCC3)C(=O)N(C)[C@H](C(=O)N(C)C)CC(=O)N(C)[C@@H](CC(C)C)C(=O)N[C@@H]([C@@H](C)CC)C(=O)N(C)CC(=O)N(C)[C@H]3C/C=C\CCN(C3=O)[C@@H](Cc3ccc(C)cc3)C(=O)N(C)CC(=O)N[C@@H](CCc3ccc(C(F)(F)F)c(OC)c3)C(=O)N2C1 [PP3382] | 9.70 | A (a compound having 10 or more and less than 20 is denoted as A) | B (a compound having 3 or more and less than 10 is denoted as B) | 8.28
3 | CCCC[C@H]1C(=O)N[C@@H]([C@@H](C)CC)C(=O)N2CCC[C@H]2C(=O)N(C)[C@H]2C/C=C\CCN(C2=O)[C@@H](Cc2ccc(C)cc2)C(=O)N(C)CC(=O)N[C@@H](CCc2ccc(C(F)(F)F)c(OC)c2)C(=O)N2C[C@H](OCC)C[C@H]2C(=O)OC2(CCC2)C(=O)N(C)[C@@H](C2CCCC2)C(=O)N(C)[C@H](C(=O)N(C)C)CC(=O)N1C [PP3383] | 9.13 | A (a compound having 10 or more and less than 20 is denoted as A) | A (a compound having 10 or more and less than 20 is denoted as A) | 7.76
4 | CCCC[C@H]1C(=O)N[C@@H]([C@@H](C)CC)C(=O)N(C2CC2)CC(=O)N(C)[C@H]2C/C=C\CCN(C2=O)[C@@H](Cc2ccc(C)cc2)C(=O)N(C)CC(=O)N[C@@H](CCc2ccc(C(F)(F)F)c(OC)c2)C(=O)N2C[C@H](OCC)C[C@H]2C(=O)OC2(CCC2)C(=O)N(C)[C@@H](C2CCCC2)C(=O)N(C)[C@H](C(=O)N(C)C)CC(=O)N1C [PP3384] | 8.92 | A (a compound having 10 or more and less than 20 is denoted as A) | B (a compound having 3 or more and less than 10 is denoted as B) | 7.74
5 | CCCC[C@H]1C(=O)N[C@@H]([C@@H](C)CC)C(=O)N(C)CC(=O)N(C)[C@H]2C/C=C\CCN(C2=O)[C@@H](Cc2ccc(C)cc2)C(=O)N(C)CC(=O)N[C@@H](CCc2ccc(C(F)(F)F)c(OC)c2)C(=O)N2C[C@H](OCC)C[C@H]2C(=O)OC2(CCC2)C(=O)N(C)[C@@H](C2CCCC2)C(=O)N(C)[C@H](C(=O)N(C)C)CC(=O)N1C [PP3385] | 9.66 | A (a compound having 10 or more and less than 20 is denoted as A) | B (a compound having 3 or more and less than 10 is denoted as B) | 8.09
6 | CCC[C@H]1C(=O)N[C@@H]([C@@H](C)CC)C(=O)N2CCC[C@H]2C(=O)N(C)[C@H]2C/C=C\CCN(C2=O)[C@@H](Cc2ccc(C)cc2)C(=O)N(C)CC(=O)N[C@@H](CCc2ccc(C(F)(F)F)c(OC)c2)C(=O)N2C[C@H](OCC)C[C@H]2C(=O)OC2(CCC2)C(=O)N(C)[C@@H](C2CCCC2)C(=O)N(C)[C@H](C(=O)N(C)C)CC(=O)N1C [PP3386] | 9.18 | A (a compound having 10 or more and less than 20 is denoted as A) | B (a compound having 3 or more and less than 10 is denoted as B) | 7.97
7 | CCC[C@H]1C(=O)N[C@@H]([C@@H](C)CC)C(=O)N(C2CC2)CC(=O)N(C)[C@H]2C/C=C\CCN(C2=O)[C@@H](Cc2ccc(C)cc2)C(=O)N(C)CC(=O)N[C@@H](CCc2ccc(C(F)(F)F)c(OC)c2)C(=O)N2C[C@H](OCC)C[C@H]2C(=O)OC2(CCC2)C(=O)N(C)[C@@H](C2CCCC2)C(=O)N(C)[C@H](C(=O)N(C)C)CC(=O)N1C [PP3387] | 9.25 | A (a compound having 10 or more and less than 20 is denoted as A) | B (a compound having 3 or more and less than 10 is denoted as B) | 7.95
8 | C#CC[C@H]1C(=O)N[C@@H]([C@@H](C)CC)C(=O)N2CCC[C@H]2C(=O)N(C)[C@H]2C/C=C\CCN(C2=O)[C@@H](Cc2ccc(C)cc2)C(=O)N(C)CC(=O)N[C@@H](CCc2ccc(C(F)(F)F)c(OC)c2)C(=O)N2C[C@H](OCC)C[C@H]2C(=O)OC2(CCC2)C(=O)N(C)[C@@H](C2CCCC2)C(=O)N(C)[C@H](C(=O)N(C)C)CC(=O)N1C [PP3389] | 9.42 | A (a compound having 10 or more and less than 20 is denoted as A) | B (a compound having 3 or more and less than 10 is denoted as B) | 8.14
9 | C#CC[C@H]1C(=O)N[C@@H]([C@@H](C)CC)C(=O)N(C2CC2)CC(=O)N(C)[C@H]2C/C=C\CCN(C2=O)[C@@H](Cc2ccc(C)cc2)C(=O)N(C)CC(=O)N[C@@H](CCc2ccc(C(F)(F)F)c(OC)c2)C(=O)N2C[C@H](OCC)C[C@H]2C(=O)OC2(CCC2)C(=O)N(C)[C@@H](C2CCCC2)C(=O)N(C)[C@H](C(=O)N(C)C)CC(=O)N1C [PP3390] | 9.16 | A (a compound having 10 or more and less than 20 is denoted as A) | B (a compound having 3 or more and less than 10 is denoted as B) | 7.64
10 | C#CC[C@H]1C(=O)N[C@@H]([C@@H](C)CC)C(=O)N(C)CC(=O)N(C)[C@H]2C/C=C\CCN(C2=O)[C@@H](Cc2ccc(C)cc2)C(=O)N(C)CC(=O)N[C@@H](CCc2ccc(C(F)(F)F)c(OC)c2)C(=O)N2C[C@H](OCC)C[C@H]2C(=O)OC2(CCC2)C(=O)N(C)[C@@H](C2CCCC2)C(=O)N(C)[C@H](C(=O)N(C)C)CC(=O)N1C [PP3391] | 9.34 | B (a compound having 3 or more and less than 10 is denoted as B) | B (a compound having 3 or more and less than 10 is denoted as B) | 8.01
11 | CCO[C@@H]1C[C@H]2C(=O)OC3(CCC3)C(=O)N(C)[C@@H](C3CCCC3)C(=O)N(C)[C@H](C(=O)N(C)C)CC(=O)N(C)[C@@H]([C@@H](C)OC)C(=O)N[C@@H]([C@@H](C)CC)C(=O)N3CCC[C@H]3C(=O)N(C)[C@H]3C/C=C\CCN(C3=O)[C@@H](Cc3ccc(C)cc3)C(=O)N(C)CC(=O)N[C@@H](CCc3ccc(C(F)(F)F)c(OC)c3)C(=O)N2C1 [PP3392] | 9.19 | A (a compound having 10 or more and less than 20 is denoted as A) | B (a compound having 3 or more and less than 10 is denoted as B) | 7.94
12 | CCO[C@@H]1C[C@H]2C(=O)OC3(CCC3)C(=O)N(C)[C@@H](C3CCCC3)C(=O)N(C)[C@H](C(=O)N(C)C)CC(=O)N(C)[C@@H]([C@@H](C)OC)C(=O)N[C@@H]([C@@H](C)CC)C(=O)N(C3CC3)CC(=O)N(C)[C@H]3C/C=C\CCN(C3=O)[C@@H](Cc3ccc(C)cc3)C(=O)N(C)CC(=O)N[C@@H](CCc3ccc(C(F)(F)F)c(OC)c3)C(=O)N2C1 [PP3393] | 9.29 | A (a compound having 10 or more and less than 20 is denoted as A) | B (a compound having 3 or more and less than 10 is denoted as B) | 8.33
